This is an account of results in patent US20170258787A1, “PROPHYLACTIC AND/OR THERAPEUTIC AGENT FOR BEHAVIORAL AND PSYCHOLOGICAL SYMPTOMS ASSOCIATED WITH NEURODEGENERATIVE DISEASE OR IMPULSIVE SYMPTOMS ASSOCIATED WITH MENTAL DISEASE CONTAINING BREXPIPRAZOLE OR SALT THEREOF” (OTSUKA PHARMACEUTICAL CO., LTD., priority 2012, published 2017).

For data set [1], the system named is patients with highly severe Alzheimer's disease. To be noted: 12 weeks, Alzheimer's disease patients in nursing home, cited from earlier work.
For data set [2], the system named is Wistar rat. The settings on record: reported in Alcohol & Alcoholism 2001; 36:2-10; cited from earlier work.
A further data set deals with schizophrenia patients. The settings on record: Psychiatric Services 2001, 52:1510-14; cited from earlier work.
For data set [3], the system named is mouse having a Disc1 L100P point mutation. The settings on record: Neuron 54(3): 387-402, 2007; cited from earlier work.
Another data set deals with APPSL-Tg mouse. Description: Measurement of mouse circadian rhythm locomotor activity (spontaneous locomotor activity in dark period). The settings on record: for spontaneous locomotor activity, dark period III (3:00-7:00), Night 1 / spontaneous locomotor activity, dark period III (3:00-7:00), Night 2 / spontaneous locomotor activity, dark period III (3:00-7:00), Night 3: APPSL-Tg mice. The data set is classed as in vivo. An excerpt:
1) Measurement of Mouse Circadian Rhythm Locomotor Activity
(§1) Animal: APPSL-Tg mouse (male) having Swedish and London APP mutations, and non-Tg mouse (male) free of a genetic mutation as a control were generated (Neuroscience Letters 2010; 469:273-277), bred in a breeding room, and used after they became 6-month-old. During the breeding, isolated housing was applied.
(§2) Measurement method: SUPERMEX manufactured by Muromachi Kikai Co., Ltd. was used for the measurement of circadian rhythm locomotor activity. The mouse was placed in an individual cage, and the spontaneous locomotor activity of the mouse was measured for 3 days (total 62.5 hr) under free-feeding, drinking water conditions. In this apparatus, a passive infrared sensor detects infrared rays emitted from the mouse, and the number of transpositions is counted. The measured values are totaled every 30 min, and automatically totaled using a specialized software CompACT AMS. The test was performed in a soundproof chamber, so that the spontaneous locomotor activity of the mouse would not be influenced. The lighting time in the soundproof chamber was set to 7:00-19:00 as in the breeding room.
The amounts of spontaneous locomotor activity of non-Tg mice and APPSL-Tg mice during the dark period of 19:00-7:00 were measured in advance. The mice were grouped in such manner as makes the mean and variance of the groups equal, using the body weight and the dark period spontaneous locomotor activity as indices.
Brexpiprazole was dissolved in distilled water containing 5% gum arabic, 5% gum arabic distilled water was used for the vehicle group, and they were orally administered to each mouse.
For 3 days, brexpiprazole and the vehicle were administered during the period of 17:30-18:30. After the administration, the measurement of the amount of locomotor activity was rapidly started or continued.
The statistical test was a two-sided test, and the significance level of the test was set to 5%. As a statistical software, SAS (R9.1, SAS Institute Japan Ltd.) was used.
Dunnett's test was performed based on the repeated measures ANOVA using a mixed model for Night 1-Night 3 at every phase I, II or III of the dark period. Furthermore, Dunnett's test was performed for every dark period and Night.

Another data set has as its system non-Tg mouse. As to the kind of experiment: Measurement of mouse circadian rhythm locomotor activity in control mice. The data set is classed as in vivo.
Description: as §1, §2
Brexpiprazole was administered to APPSL-Tg mouse immediately before the dark period (17:30-18:30) at a dose of 0.01 and 0.03 mg/kg, and the measurement of the spontaneous locomotor activity was started. […]

A further data set has as its system Tg2576 mouse. As to the kind of experiment: Resident-Intruder test (aggression, biting). The data set is classed as in vivo. To be noted: 0.03 mg/kg oral 1 hr before test. An excerpt: Animal: Tg2576 mice (male) having a Swedish APP mutation (K670N, M671L) and non-Tg mice (male) free of the same genetic mutation as a control were purchased from Taconic, and bred and aged until 5- to 6-month-old of age. During the breeding, isolated housing was applied. Measurement method: For the experiment, Tg2576 or non-Tg mouse [Resident] and A/J mouse [Intruder] almost free of aggression were used. Resident formed a sufficient territory by isolated housing for 14 days. […] As the aggressive behavior, biting was noted, and the time necessary for the first biting and total number of biting for 10 min were measured. The measurement was performed within the dark period phase 1 (4 hr) when the amount of locomotor activity of the mouse is the highest. Tg2576 (48 mice) and non-Tg mice (10 mice) were subjected to a Resident-Intruder test in advance, and promotion of the to aggression of the Tg2576 mouse was confirmed. Five Tg2576 mice free of aggression were excluded and 43 mice were used for the test. The mice were grouped into 3 groups in such manner as makes the mean and variance of the groups equal, using the time necessary for the first attack and total number of biting for 10 min, which were obtained in the preliminary test, as indices (total 43 mice). […]

For data set [4], the system named is Wistar rat. Description: Measurement of alcohol intake by limited access paradigm. The data set is classed as in vivo. As to the method: Measurement method: An impulsive behavior of cravings for alcohol was evaluated as follows by reference to the method of Sinclair et al. (Alcohol 1992; 9:441-44 and Alcohol & Alcoholism 2001; 36:2-10). First, Wistar rat (male) was allowed to freely take 10% aqueous ethanol solution and tap water for several weeks under isolated housing. After stabilization of ethanol intake by each animal, a limited access paradigm allowing ethanol intake for only 1 hr per day was started, and the ethanol intake for 1 hr was measured every day. Ethanol intake was calculated from the results of the weight measurement of the water supply bottle filled with 10% aqueous ethanol solution immediately before the start of the limited access paradigm and immediately after completion thereof. An animal which was showing over 0.4 g/kg/hr in terms of 100% ethanol as an average ethanol intake in the limited access paradigm for 4 days immediately before drug evaluation was used. The limited access paradigm test was performed between 9:00 AM-12:00 PM. Brexpiprazole was suspended in distilled water containing 5% gum arabic. […] An average ethanol intake in the limited access paradigm of 4 days immediately before drug evaluation and an average ethanol intake in the limited access paradigm of 4 days after drug administration were analyzed by the 2-tailed paired t-test.

In data set [5] the test system is Wistar rat. Description: Spontaneous locomotor activity under novel environments. The data set is classed as in vivo. The settings on record: 0.1 mg/kg, data not indicated.
For the next data set, the system named is c-fos-GFP mouse. As to the kind of experiment: Measurement of nerve activation pattern (GFP signal) of c-fos-GFP mouse. The data set is classed as in vivo. To be noted: brain isolated 3 hr later. As to the method: Measurement method: c-fos is an indirect marker for neuronal activity, which is expressed on activation of nerve cell. Using a transgenic mouse introduced with a green fluorescent protein (GFP) gene at the downstream of the promoter of c-fos gene (c-fos-GFP mouse), the nerve activation pattern in the brain was measured. Brexpiprazole or vehicle was administered, and the brain was isolated 3 hr later. GFP signals from serial sections of the whole brain were stored in a computer using a two-photon microscope and, after three-dimensional reconstruction, the nerve activation patterns of brexpiprazole (OPC-34712) and vehicle groups were quantitatively analyzed using the brain map information. Brexpiprazole was suspended in distilled water containing 5% gum arabic, and orally administered to c-fos-GFP mouse. Five to seven mice were used. The dose of brexpiprazole was 0.3 and 1 mg/kg. The significance level of the test was set to 5%. In the comparison between groups in each brain region, Tukey's multiple comparison test was conducted.

Setting [6] is: 0.01 mg/kg oral, n = 6, mean ± standard error.
Setting [7] is: 0.03 mg/kg oral, n = 5, mean ± standard error.

As to `COc1cc2c(cc1OC)C(=O)C(CC1CCN(Cc3ccccc3)CC1)C2` (stereo not drawn) [donepezil], in data set [1] (p value 0.95), the “NPI (Neuropsychiatric Inventory) score vs placebo” value is given as “no statistically significant difference”. For the same compound, the “CMAI (Cohen-Mansfield Agitation Inventory) score vs placebo” value in [1] (p value 0.98) is “no statistically significant difference”.
Take `C=C1CC[C@@]2(O)[C@H]3Cc4ccc(O)c5c4[C@@]2(CCN3CC2CC2)[C@H]1O5` [Nalmefene]: the “effect in the limited access paradigm evaluation system” value in the data set on Wistar rat [2] is given as “shows effect in this evaluation system”.
Take `O=C(CCCN1CCC(O)(c2ccc(Cl)cc2)CC1)c1ccc(F)cc1` [haloperidol]: the “hostility (positive scale of PANSS)” value with schizophrenia patients is “aggravated hostility”. For the same compound, in [3], the schizophrenia-like behaviors entry was “reduced the schizophrenia-like behaviors”.
As to `O=c1ccc2ccc(OCCCCN3CCN(c4cccc5sccc45)CC3)cc2[nH]1` [brexpiprazole, 7-[4-(4-benzo[b]thiophen-4-yl-piperazin-1-yl)butoxy]-1H-quinolin-2-one], the “spontaneous locomotor activity at Night 3, dark period phase III, vs vehicle (in words)” value in the data set with APPSL-Tg mouse (0.01 mg/kg oral, P<0.01) is listed as “significantly suppressed the spontaneous locomotor activity at Night 3”; in the data set with APPSL-Tg mouse (0.03 mg/kg oral, P=0.068), “tended to suppress at Night 3”. The “spontaneous locomotor activity in dark period phase III compared to the vehicle group (Night 1-Night 3)” value is given as “significantly suppress the spontaneous locomotor activity” in the data set on APPSL-Tg mouse (0.01 mg/kg oral, P<0.05) and “significantly suppress the spontaneous locomotor activity” with APPSL-Tg mouse (0.03 mg/kg oral, P=0.050). For the same compound, the “spontaneous locomotor activity, dark period III (3:00-7:00), Night 1” value with APPSL-Tg mouse (setting [6]) came to 7256; in the data set with APPSL-Tg mouse (setting [7]) it was 6014. The “spontaneous locomotor activity, dark period III (3:00-7:00), Night 2” value is given as 6466 in the data set on APPSL-Tg mouse (setting [6]) and 5443 with APPSL-Tg mouse (setting [7]). Besides, the “spontaneous locomotor activity, dark period III (3:00-7:00), Night 3” value in the data set on APPSL-Tg mouse (0.01 mg/kg oral, n = 6, mean ± standard error, P < 0.01 vs vehicle) was found to be 4928; in the data set with APPSL-Tg mouse (0.03 mg/kg oral, n = 5, mean ± standard error, P = 0.068 vs vehicle), 6845. In addition, in the data set on non-Tg mouse, the “spontaneous locomotor activity in dark period” value is given as “did not decrease the spontaneous locomotor activity”. The “time necessary for the first biting compared to the vehicle group” value with Tg2576 mouse (P<0.05) is recorded as “significantly elongated”. The “number of biting for 10 min compared to the vehicle group” value with Tg2576 mouse (P=0.0709) is “tended to show a decreased number of biting”. The “ethanol intake observed individually” value in the data set with Wistar rat [4] (0.1 mg/kg oral for 4 days, five rats) is given as “all rats showed a decrease in the ethanol intake”. In addition, in the data set on Wistar rat [4] (0.1 mg/kg oral once per day for 4 days, 1 hr before, vs 4 days before drug), the “average ethanol intake in the limited access paradigm” value is “statistically significant suppression of ethanol intake”. The “influence on spontaneous locomotor activity under novel environments” value with Wistar rat [5] was “does not influence spontaneous locomotor activity”. In addition, the “GFP signal in the medial prefrontal cortex (ACA, PL, IL) relative to vehicle” value in the data set with c-fos-GFP mouse (0.3 mg/kg oral) and in the data set with c-fos-GFP mouse (1 mg/kg oral) was “significantly increased GFP signal” in each case.
Take `Cc1nc2n(c(=O)c1CCN1CCC(c3noc4cc(F)ccc34)CC1)CCCC2` [risperidone]: the “hostility (positive scale of PANSS)” value with schizophrenia patients was “aggravated hostility”.
